The text below walks through data of PMC11178805, “Ligand-based design of [^18F]OXD-2314 for PET imaging in non-Alzheimer’s disease tauopathies” (Nature Communications, 2024).

By pKi is commonly meant the negative decadic logarithm of the Ki, by convention in mol/L. Lower therefore signals a large Ki.

pKi: −log10 of the molar value. Like-named read-outs stand apart in the source and are kept apart here.

Data set [1] can be described thus: Baseline PET-CT imaging of [18F]OXD-2188 and [18F]OXD-2189 in rats. In kind it is in vivo, rat. As to conditions: normal rats, n = 2. The protocol: In vitro characterization, radiosynthesis and rat PET imaging of [ 18F ]O X D -2188 and […]
In vitro characterization. Ki values for OXD-21188 and OXD-2189 vs. [3H]OXD- 2115 in PSP tissue was 29.8 nM and 13.7nM respectively.
Radiochemistry. [18F]OXD- 2188 and [18F]OXD- 2189 were radiolabeled using the same […]
radiochemical purity above 95%, molar activity of 60.1 and 58.4 GBq/μmol, respectively, and radiochemical yield of 9% (not decay- co rrected).
PET imaging. Three adul t rats (two females and o ne male) w ere used in b aseline PET imaging of [18F]OXD- 2188 and [18F]OXD- 2189 (16- 23 MBq injected, with the m ale rat being scanned twice on two consecutive d ays). […]
for both [18F]OXD- 2188 (n=2) and [18F]OXD- 2189 (n=2) with rapid clearance of radioactivity from the brain (Figure S1).
Figure S1. Structures of OXD-2188 and OXD-2189, time-activity curves and representative PET summation images […]

Data set [2] has as its target T1, 3R/4R-tau aggregates in AD tissue (Homo sapiens, UniProt P10636). Kind of data set: Competition binding vs [^3H]OXD-2115 in AD tissue homogenates. To be noted: vs [^3H]OXD-2115, AD tissue homogenates, n = 1. As for the experimental part:
(§1) Fresh frozen, autopsy-confirmed human PD anterior cingulate cortex brain tissue blocks (1 cm^3) were obtained from Dr. Thomas Beach at Banner/Sun Health AZ with funding from the Michael J. Fox Foundation and contained frequent α-synuclein aggregates and no other detectable aggregated amyloid species. The frozen tissue blocks were prepared for the binding assays as previously described[47],[48], except that equal quantities of the homogenates of three AD brains (AD1-AD3, Table S1) were pooled, as were homogenates from three PSP brains (PSP1-PSP3), three CBD brains (CBD1-CBD3), three Pick’s brains (PiD1-PiD3), and 4 PD brains (PD1-PD4) in order to help minimize the inter-subject variability within the different neuropathological groups. Individual subcortical brain tissues from a PSP subject (PSP4) and a CBD subject (CBD4), as well as with the middle frontal cortex of a control subject, were prepared for the binding assays as previously described[47],[48].
(§2) The equilibrium inhibition constant (Ki) values of the unlabeled compounds were determined versus tritium-labeled radioligands using published methods.
Target sequence in this assay (P10636 623-695 limits assumed): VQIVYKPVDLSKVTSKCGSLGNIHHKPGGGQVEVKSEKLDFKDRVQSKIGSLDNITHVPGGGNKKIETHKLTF

The target of data set [3] is T2, 4R-tau aggregates in PSP tissue (Homo sapiens, UniProt P10636).
T2 construct: tissue Neurodegenerative Disease Brain Bank at UCSF
As to the kind of experiment: Competition binding vs [^3H]OXD-2115 in PSP tissue homogenates. To be noted: vs [^3H]OXD-2115, PSP tissue homogenates, n = 1. The protocol:
as §1, §2

Data set [4] concerns the target T3, 4R-tau aggregates in CBD tissue (Homo sapiens, UniProt P10636).
T3 construct: tissue Neurodegenerative Disease Brain Bank at UCSF; host or cells: human CBD brain, middle frontal gyrus (pool of three) or putamen (one subject)
As to the kind of experiment: Competition binding vs [^3H]OXD-2314 in CBD tissue. The protocol: as §1, §2

Data set [5] concerns the target T2, 4R-tau aggregates in PSP tissue. As to the kind of experiment: Competition binding vs [^3H]OXD-2314 in PSP tissue. As for the experimental part:
as §1, §2

Data set [6] addresses T1, 3R/4R-tau aggregates in AD tissue. Kind of data set: Competition binding vs [^3H]OXD-2314 in AD tissue. As for the experimental part: as §1, §2
Target sequence in this assay (P10636 623-758 limits assumed): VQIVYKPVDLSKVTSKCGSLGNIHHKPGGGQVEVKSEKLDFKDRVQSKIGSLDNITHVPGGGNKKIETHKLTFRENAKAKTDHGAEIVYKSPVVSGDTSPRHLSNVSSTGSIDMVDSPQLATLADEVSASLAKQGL
In data set [7] the target is T4, 3R-tau aggregates in PiD tissue (Homo sapiens, UniProt P10636).
T4 construct: tissue Neurodegenerative Disease Brain Bank at UCSF; host or cells: human PiD brain, middle frontal gyrus, pooled homogenate of three brains
As to the kind of experiment: Competition binding vs [^3H]OXD-2314 in PiD tissue. As for the experimental part:
as §1, §2

Data set [8] in a line: Mouse pharmacology (DMPK): plasma and brain concentrations, brain-to-plasma ratios after i.v. administration. In kind it is in vivo, mice. To be noted: mouse, brain, iv, mice, i.v., AUC brain:plasma. As for the experimental part: Ex vivo evaluation of the BBB permeability of OXD-2314 was performed by measuring the brain-to-plasma ratios in mice. Compound concentrations in plasma (0.03 h, 0.17 h, 0.5 h, 1 h, and 2 h; n = 3 per timepoint) were compared with concentrations in brain (0.03 h, 0.17 h, 1 h, and 2 h; n = 3 per timepoint) for both OXD-2115 and OXD-2314. The total brain-to-plasma concentration ratios were 1.7 for OXD-2314 and 0.1 for OXD-2115. The free concentration ratio for brain-to-plasma was 0.6 for OXD-2314 and 0.002 for OXD-2115 (Figs. S3–S8 and Tables S2, S3).

T2 sequence (P10636 1-441 isoform P10636-8): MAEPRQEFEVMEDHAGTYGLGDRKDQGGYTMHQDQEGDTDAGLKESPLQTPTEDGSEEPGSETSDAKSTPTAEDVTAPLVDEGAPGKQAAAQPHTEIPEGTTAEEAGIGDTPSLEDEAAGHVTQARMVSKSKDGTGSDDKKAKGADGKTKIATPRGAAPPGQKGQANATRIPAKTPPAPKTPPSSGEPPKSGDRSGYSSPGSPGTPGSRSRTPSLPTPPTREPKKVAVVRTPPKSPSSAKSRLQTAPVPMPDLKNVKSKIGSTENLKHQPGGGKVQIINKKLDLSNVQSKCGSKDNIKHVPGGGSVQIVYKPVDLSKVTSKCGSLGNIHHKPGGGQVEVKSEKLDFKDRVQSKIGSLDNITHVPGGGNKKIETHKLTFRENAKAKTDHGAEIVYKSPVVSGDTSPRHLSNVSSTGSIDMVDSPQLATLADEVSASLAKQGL
T3 sequence (P10636 1-441 isoform P10636-8): as above
T4 sequence (P10636 1-410 isoform P10636-5): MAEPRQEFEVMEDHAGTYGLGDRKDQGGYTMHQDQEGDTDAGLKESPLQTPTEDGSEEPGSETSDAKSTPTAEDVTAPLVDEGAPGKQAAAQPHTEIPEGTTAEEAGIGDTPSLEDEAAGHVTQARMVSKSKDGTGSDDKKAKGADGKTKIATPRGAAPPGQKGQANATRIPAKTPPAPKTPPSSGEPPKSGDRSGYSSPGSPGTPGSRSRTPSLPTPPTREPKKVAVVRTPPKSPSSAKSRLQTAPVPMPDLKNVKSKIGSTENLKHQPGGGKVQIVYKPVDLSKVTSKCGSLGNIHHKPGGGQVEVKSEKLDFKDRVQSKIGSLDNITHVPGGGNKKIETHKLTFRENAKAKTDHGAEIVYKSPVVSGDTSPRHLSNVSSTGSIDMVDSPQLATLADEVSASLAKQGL

Take `Oc1ccc2[nH]c(-c3ccc(N4CCC[C@H](O)C4)nc3[18F])cc2c1` [[18F]OXD-2189]: in data set [1], the initial brain uptake is recorded as ~ 1.0 SUV.
As for `Oc1ccc2[nH]c(-c3ccc(F)nc3N3CCCC(F)C3)cc2c1` (stereo not drawn) [OXD-2313], the pKi in data set [2] is 7.96; in data set [3], 8.32.
With `C#CCN(C)C(C)Cc1ccccc1` (stereo not drawn) [Deprenyl], the negative-log Ki (pKi) was 5.30 in data set [4] (vs [^3H]OXD-2314, CBD tissue); 5.52 in data set [5] (vs [^3H]OXD-2314, PSP tissue); 5.54 in data set [6] (vs [^3H]OXD-2314, AD tissue).
Consider `NCCNC(=O)c1ncsc1-c1cccc(F)c1` [Ro41-1049], for which the pKi in data set [4] (vs [^3H]OXD-2314, CBD tissue) is under 5.00; in data set [5] (vs [^3H]OXD-2314, PSP tissue) it was under 5.00; in data set [6] (vs [^3H]OXD-2314, AD tissue), under 5.00.
For the compound `Fc1ccc(-c2ccc3c(c2)[nH]c2ccncc23)cn1` [Tauvid], the pKi in data set [4] was under 5.00; in data set [5] it was under 5.00; in data set [6], under 5.00; in data set [7], 5.36.
For `OCC1CCN(c2ccc(-c3cc4cc(O)ccc4[nH]3)c(F)n2)CC1` [OXD-2115], the pKi in data set [2] is 7.70; in data set [4], 7.52; in data set [5], 7.57; in data set [6] it was 7.85; in data set [3], 7.57; in data set [7] it was 7.64. For the same compound, in data set [8] (FREE, read-out: free concentration ratio brain-to-plasma), the Kp,uu (unbound brain-to-plasma ratio) worked out at 0.002. The Kp in data set [8] (TOTAL, read-out: total brain-to-plasma concentration ratio) came to 0.1.
For `Nc1c(F)ccc2cnc(-n3ccc4ccncc43)cc12` [MK-6240], the pKi is 5.77 in data set [4], 5.25 in data set [5], 5.72 in data set [6] and 6.00 in data set [7].
With `Oc1ccc2[nH]c(-c3ccc(N4CCC[C@@H](O)C4)nc3[18F])cc2c1` [[18F]OXD-2188], the initial brain uptake in data set [1] was ~ 1.0 SUV.
For `Oc1ccc2[nH]c(-c3ccc(N4CCC(F)CC4)nc3F)cc2c1` [OXD-2317], the results for the pKi in data set [2] and in data set [3] were 8.27 and 8.24, respectively.
The like results for `Oc1ccc2[nH]c(-c3ccc(N4CCCC(F)C4)nc3F)cc2c1` (stereo not drawn) [OXD-2312] were, in that order, 7.92 and 8.29.
For `Oc1ccc2[nH]c(-c3ccc(N4CCC[C@H](O)C4)nc3F)cc2c1` [OXD-2189], in data set [3], the negative logarithm of the Ki (pKi) is 7.86.
Still for that read-out and setting: the value for `Oc1ccc2[nH]c(-c3ccc(N4CCC[C@@H](O)C4)nc3F)cc2c1` [OXD-2188] was 7.53.
As to `Oc1ccc2[nH]c(-c3ccc(N4CCC(O)CC4)nc3F)cc2c1` [OXD-2310], the pKi in data set [2] was 7.68; in data set [3], 8.18.
For `CO[C@H]1CCCN(c2ncc(-c3cc4cc(O)ccc4[nH]3)c(F)n2)C1` [OXD-2331], in that order: 8.13 and 8.20.
